Results reported in patent US11208412B2 (DAEGU-GYEONGBUK MEDICAL INNOVATION FOUNDATION, priority 2017, dated 2021).

Assays:
Experiment in all cases: Kinase selectivity, DiscoverX scanMAX Kinase assay panel (% control)
Format in all cases: binding
[1] = target: T1, kinases of the scanMAX Kinase assay panel (Homo sapiens, UniProt O00238); conditions: BMPR1B; 1 uM
T1 construct: purchased DiscoverX Co. (contract measurement) scanMAX Kinase assay panel
In short: (§1)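 Read-out is % control, normalised so a positive-control compound sits at 0% and DMSO at 100%: (test − positive)/(negative − positive)×100. Each kinase received the compound at 1 uM in DMSO. A value below 35% counts as activity.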

[2] = target: T2, kinases of the scanMAX Kinase assay panel (Homo sapiens, UniProt P00519); conditions: 1 uM
T2 construct: purchased DiscoverX Co. (contract measurement) scanMAX Kinase assay panel
T2 sequence (P00519 whole entry): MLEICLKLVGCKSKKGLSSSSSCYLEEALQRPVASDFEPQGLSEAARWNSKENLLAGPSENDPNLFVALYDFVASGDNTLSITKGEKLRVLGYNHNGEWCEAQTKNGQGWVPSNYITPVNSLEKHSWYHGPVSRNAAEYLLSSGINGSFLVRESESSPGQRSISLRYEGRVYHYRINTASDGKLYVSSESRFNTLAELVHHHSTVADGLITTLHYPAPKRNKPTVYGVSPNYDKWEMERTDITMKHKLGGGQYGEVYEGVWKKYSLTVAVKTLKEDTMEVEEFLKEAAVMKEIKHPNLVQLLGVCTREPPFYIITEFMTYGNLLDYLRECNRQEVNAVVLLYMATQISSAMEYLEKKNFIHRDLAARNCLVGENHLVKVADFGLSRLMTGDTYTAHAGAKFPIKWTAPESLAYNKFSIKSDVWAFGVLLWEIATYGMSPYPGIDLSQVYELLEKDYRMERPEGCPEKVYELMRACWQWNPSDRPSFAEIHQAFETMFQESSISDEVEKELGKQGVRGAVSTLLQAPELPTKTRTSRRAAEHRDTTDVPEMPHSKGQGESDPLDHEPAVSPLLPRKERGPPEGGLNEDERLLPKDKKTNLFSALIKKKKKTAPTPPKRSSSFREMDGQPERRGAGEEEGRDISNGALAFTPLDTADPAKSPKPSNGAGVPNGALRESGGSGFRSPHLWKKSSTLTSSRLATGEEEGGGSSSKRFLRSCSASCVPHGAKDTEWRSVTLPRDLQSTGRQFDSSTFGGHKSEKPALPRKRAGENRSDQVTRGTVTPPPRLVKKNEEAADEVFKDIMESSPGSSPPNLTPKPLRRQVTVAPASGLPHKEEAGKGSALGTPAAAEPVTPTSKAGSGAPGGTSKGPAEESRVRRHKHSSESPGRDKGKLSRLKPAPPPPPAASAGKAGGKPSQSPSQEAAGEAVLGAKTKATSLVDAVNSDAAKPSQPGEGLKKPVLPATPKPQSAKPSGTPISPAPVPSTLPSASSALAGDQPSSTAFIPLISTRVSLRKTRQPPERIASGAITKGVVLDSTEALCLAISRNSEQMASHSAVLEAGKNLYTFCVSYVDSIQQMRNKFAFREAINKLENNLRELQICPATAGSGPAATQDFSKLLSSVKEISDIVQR
In short: as §1

[3] = target: T3, kinases of the scanMAX Kinase assay panel (Homo sapiens, UniProt P08581, Y1235D); conditions: MET(Y1235D); 1 uM
T3 construct: purchased DiscoverX Co. (contract measurement) scanMAX Kinase assay panel
T3 sequence (P08581 25-1390 Y1235D): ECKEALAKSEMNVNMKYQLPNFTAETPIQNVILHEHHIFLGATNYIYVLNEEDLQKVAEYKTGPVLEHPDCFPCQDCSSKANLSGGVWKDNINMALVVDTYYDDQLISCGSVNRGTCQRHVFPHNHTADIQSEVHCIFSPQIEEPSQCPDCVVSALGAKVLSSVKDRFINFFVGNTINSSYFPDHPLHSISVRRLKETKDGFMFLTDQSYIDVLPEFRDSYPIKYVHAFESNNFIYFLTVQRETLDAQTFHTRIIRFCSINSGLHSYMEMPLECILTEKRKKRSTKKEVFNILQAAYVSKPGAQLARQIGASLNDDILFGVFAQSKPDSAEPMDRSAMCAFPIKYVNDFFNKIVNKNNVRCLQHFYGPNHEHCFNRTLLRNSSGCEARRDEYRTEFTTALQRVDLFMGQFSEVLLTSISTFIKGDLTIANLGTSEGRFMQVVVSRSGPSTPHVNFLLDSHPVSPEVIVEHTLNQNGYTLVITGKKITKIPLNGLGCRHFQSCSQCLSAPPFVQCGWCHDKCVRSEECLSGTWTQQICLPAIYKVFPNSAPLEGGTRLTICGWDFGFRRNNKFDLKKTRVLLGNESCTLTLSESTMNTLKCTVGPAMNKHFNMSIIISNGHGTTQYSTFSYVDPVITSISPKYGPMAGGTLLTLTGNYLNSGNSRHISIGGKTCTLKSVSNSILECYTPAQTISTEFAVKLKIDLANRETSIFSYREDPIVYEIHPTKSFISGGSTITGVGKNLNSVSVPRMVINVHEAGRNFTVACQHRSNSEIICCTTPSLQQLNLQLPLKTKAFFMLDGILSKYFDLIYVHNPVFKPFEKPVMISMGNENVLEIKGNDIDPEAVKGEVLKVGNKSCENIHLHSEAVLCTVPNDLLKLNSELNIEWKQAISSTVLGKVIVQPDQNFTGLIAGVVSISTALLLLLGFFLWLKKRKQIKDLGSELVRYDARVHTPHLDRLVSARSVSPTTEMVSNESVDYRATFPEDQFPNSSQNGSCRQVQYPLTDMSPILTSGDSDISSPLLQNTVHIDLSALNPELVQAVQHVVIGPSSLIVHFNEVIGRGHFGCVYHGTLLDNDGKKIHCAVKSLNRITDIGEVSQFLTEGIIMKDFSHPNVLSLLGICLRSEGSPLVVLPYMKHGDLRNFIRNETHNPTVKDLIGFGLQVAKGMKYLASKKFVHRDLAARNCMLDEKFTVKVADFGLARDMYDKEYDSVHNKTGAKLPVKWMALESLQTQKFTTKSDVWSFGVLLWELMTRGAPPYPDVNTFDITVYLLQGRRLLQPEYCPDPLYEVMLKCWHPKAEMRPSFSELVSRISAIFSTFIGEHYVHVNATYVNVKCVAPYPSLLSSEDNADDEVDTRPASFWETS
In short: as §1

[4] = target: T4, kinases of the scanMAX Kinase assay panel (Homo sapiens, UniProt P15735); conditions: PHKG2; 1 uM
T4 construct: purchased DiscoverX Co. (contract measurement) scanMAX Kinase assay panel
T4 sequence (P15735 1-406): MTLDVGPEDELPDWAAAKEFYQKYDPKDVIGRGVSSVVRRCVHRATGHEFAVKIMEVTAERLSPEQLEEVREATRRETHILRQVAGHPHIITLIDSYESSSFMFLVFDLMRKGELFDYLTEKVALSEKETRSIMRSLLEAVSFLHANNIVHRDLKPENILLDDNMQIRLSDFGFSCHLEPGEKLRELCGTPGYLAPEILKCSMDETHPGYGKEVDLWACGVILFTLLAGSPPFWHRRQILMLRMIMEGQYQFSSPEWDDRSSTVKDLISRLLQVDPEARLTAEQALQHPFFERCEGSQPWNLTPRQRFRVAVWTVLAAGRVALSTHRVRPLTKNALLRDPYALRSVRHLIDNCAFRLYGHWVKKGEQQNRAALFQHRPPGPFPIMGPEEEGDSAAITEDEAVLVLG
In short: as §1

[5] = target: T5, kinases of the scanMAX Kinase assay panel (Homo sapiens, UniProt P32298); conditions: GRK4; 1 uM
T5 construct: purchased DiscoverX Co. (contract measurement) scanMAX Kinase assay panel
T5 sequence (P32298 whole entry): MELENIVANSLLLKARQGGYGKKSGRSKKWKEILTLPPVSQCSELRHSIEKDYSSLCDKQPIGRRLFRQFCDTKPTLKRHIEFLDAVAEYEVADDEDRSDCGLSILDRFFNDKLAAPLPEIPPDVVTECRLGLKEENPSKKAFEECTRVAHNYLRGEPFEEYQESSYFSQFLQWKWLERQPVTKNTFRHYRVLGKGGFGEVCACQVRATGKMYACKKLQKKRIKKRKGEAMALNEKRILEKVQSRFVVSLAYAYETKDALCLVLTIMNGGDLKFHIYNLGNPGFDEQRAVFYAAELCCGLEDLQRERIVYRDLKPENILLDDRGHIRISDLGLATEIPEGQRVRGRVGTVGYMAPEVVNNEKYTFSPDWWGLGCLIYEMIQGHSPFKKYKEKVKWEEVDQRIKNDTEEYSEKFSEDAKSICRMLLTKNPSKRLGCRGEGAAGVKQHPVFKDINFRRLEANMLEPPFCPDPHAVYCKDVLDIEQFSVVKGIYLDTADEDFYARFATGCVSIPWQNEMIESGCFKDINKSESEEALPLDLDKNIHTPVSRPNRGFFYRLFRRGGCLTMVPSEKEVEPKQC
In short: as §1

[6] = target: T6, kinases of the scanMAX Kinase assay panel (Homo sapiens, UniProt Q13153); conditions: PAK1; 1 uM
T6 construct: purchased DiscoverX Co. (contract measurement) scanMAX Kinase assay panel
T6 sequence (Q13153 whole entry): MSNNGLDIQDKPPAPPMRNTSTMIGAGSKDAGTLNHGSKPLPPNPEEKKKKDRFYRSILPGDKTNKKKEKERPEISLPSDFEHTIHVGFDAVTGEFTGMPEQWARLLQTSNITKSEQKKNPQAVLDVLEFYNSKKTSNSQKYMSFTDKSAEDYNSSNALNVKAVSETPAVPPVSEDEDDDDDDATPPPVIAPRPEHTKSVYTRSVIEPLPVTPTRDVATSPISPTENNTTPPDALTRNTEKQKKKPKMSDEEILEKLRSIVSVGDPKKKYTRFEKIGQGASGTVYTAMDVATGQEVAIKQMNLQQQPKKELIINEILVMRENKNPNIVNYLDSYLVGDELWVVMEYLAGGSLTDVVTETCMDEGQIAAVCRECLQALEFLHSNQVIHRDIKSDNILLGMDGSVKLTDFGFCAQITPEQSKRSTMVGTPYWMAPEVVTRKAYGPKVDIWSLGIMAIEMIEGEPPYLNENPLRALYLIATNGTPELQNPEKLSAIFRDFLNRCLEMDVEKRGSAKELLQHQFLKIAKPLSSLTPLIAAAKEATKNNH
In short: as §1

[7] = target: T7, kinases of the scanMAX Kinase assay panel (Homo sapiens, UniProt Q9UL54); conditions: kinase TAOK2; 1 uM in DMSO
T7 construct: purchased DiscoverX Co. (contract measurement) scanMAX Kinase assay panel
T7 sequence (Q9UL54 1-1235): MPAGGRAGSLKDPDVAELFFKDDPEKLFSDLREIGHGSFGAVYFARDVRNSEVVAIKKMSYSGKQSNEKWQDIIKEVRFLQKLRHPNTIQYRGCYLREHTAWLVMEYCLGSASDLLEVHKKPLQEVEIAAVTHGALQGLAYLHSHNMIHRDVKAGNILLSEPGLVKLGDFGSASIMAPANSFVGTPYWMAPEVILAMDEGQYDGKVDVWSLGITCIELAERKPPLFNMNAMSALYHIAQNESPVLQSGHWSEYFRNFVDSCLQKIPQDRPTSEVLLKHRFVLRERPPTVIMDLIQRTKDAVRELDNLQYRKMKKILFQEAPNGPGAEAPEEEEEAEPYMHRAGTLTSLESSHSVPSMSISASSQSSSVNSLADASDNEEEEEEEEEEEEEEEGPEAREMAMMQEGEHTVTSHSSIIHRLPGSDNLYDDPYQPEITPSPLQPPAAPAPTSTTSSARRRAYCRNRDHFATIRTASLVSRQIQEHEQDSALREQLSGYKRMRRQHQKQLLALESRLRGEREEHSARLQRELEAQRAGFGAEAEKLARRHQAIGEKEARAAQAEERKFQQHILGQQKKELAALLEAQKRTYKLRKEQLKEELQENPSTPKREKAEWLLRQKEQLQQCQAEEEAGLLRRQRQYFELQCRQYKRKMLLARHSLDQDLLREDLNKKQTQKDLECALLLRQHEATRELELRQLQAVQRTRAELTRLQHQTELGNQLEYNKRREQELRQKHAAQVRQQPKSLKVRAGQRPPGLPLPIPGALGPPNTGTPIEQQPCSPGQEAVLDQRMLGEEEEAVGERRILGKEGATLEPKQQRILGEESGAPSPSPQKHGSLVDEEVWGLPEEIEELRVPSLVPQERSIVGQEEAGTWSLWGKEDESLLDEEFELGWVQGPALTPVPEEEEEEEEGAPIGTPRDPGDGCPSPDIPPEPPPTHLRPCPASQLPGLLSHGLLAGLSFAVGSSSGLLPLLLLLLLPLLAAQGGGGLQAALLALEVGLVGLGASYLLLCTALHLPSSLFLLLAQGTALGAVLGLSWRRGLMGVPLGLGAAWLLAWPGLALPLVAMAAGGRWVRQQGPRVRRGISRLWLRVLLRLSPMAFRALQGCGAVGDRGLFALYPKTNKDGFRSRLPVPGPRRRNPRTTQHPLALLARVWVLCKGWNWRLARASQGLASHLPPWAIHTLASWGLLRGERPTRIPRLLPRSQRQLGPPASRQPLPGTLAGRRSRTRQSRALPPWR
In short: as §1

T1 sequence (O00238 14-502): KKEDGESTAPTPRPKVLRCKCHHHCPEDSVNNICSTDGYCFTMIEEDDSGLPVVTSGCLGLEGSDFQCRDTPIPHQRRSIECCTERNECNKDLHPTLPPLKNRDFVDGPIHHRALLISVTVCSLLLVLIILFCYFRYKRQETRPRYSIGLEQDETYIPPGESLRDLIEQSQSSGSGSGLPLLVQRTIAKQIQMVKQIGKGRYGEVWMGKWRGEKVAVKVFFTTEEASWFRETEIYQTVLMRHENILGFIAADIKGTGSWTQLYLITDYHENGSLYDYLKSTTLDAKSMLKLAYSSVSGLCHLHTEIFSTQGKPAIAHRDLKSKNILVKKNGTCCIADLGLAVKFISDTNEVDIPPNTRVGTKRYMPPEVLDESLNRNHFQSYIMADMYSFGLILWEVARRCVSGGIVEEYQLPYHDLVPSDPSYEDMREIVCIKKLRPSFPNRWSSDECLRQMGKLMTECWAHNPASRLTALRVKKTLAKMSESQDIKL

Structure (SMILES) | remaining binding at 1 µM [1] | remaining binding at 1 µM ([2]; ABL1-nonphosphorylated) | remaining binding at 1 µM ([2]; ABL1-phosphorylated) | remaining binding at 1 µM [3] | remaining binding at 1 µM [4] | remaining binding at 1 µM [5] | remaining binding at 1 µM [6] | remaining binding at 1 µM [7]
CNc1nc(Nc2ccc(C(=O)N3CCOCC3)cc2OC)nc2[nH]cc(C#N)c12 [Example 1, 2-((2-methoxy-4-(morpholine-4-carbonyl)phenyl)amino)-4-(methylamino)-7H-pyrrolo[2,3-d]pyrimidine-5-carbonitrile] | 98% | 92% | 88% | 82% | 14% | 92% | 100% | 78%
CC1(Nc2nc(Nc3cnn([C@H]4CCN(C5COC5)C[C@@H]4F)c3Cl)nc3[nH]cc(C#N)c23)CC1 [Example 52, 2-((5-chloro-1-((3S,4S)-3-fluoro-1-(oxetane-3-yl)piperidine-4-yl)-1H-pyrazole-4-yl)amino)((1-methylcyclopropyl)amino)-7H-pyrrolo[2,3-d]pyrimidine-5-carbonitrile] | 22% | 6.4% | 1.8% | 31% | 5.2% | 1.6% | 75% | 40%
CCNc1nc(Nc2ccc(C(=O)N3CCC(N4CCOCC4)CC3)cc2OC)nc2[nH]cc(C(F)(F)F)c12 [Example 104, (4-((4-(ethylamino)-5-(trifluoromethyl)-7H-pyrrolo[2,3-d]pyrimidine-2-yl)amino)-3-methoxyphenyl)(4-morpholinopiperidine-1-yl)methanone] | 83% | 91% | 63% | 100% | 9.3% | 100% | 71% | 87%
